This is an account of results in patent publication US20240262842A1, “SMALL MOLECULE INHIBITORS OF KRAS G12C MUTANT” (Merck Sharp & Dohme LLC, priority 2021, published 2024).

What is called IC50 is the point on the concentration scale where inhibition reaches its midpoint.

The structures appear in SMILES notation. Read-outs that look alike come from different tables or passages of the source.

The target of test [1] is T1, interaction between GMPPNP-bound recombinant K-Ras4B G12C mutant protein and cRAF RAS-binding domain (cRAF-RBD) (Homo sapiens, UniProt P01116, G12C).
T1 construct: His-tag (N)
T1 sequence (P01116 with tags, fused parts or gaps isoform P01116-2 G12C): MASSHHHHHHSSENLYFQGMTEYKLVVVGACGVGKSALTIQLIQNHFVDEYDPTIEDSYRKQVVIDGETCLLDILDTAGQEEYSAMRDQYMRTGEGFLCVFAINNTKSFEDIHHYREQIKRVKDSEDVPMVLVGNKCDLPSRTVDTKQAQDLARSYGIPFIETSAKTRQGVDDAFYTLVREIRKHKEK
In words: Inhibitory activity on interaction between KRAS G12C and cRAF (Alpha technology). In a few lines:
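His-tagged K-Ras4B G12C (aa 1-169), GMPPNP-loaded, preincubated with compound 1 h at 25° C in pH 7.5 Tris buffer with MgCl2, TCEP, Tween 20. cRAF-RBD (aa 50-132) and Alpha reagents then added for 1.5 h; Alpha signal normalised to DMSO (0%) and GDP-bound KRAS (100%); IC50 from dose titration.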

The subject of another test is MIA PaCa-2 cells. The test is described as follows: Growth inhibition activity on KRAS-G12C mutant cell line (CellTiter-Glo 3D). Particulars: Homo sapiens, MIA PaCa-2, 72 h, MIA PaCa-2, 3-day culture with compound. The test is classed as cell-based, human. In a few lines:
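MIA PaCa-2 cells in RPMI1640 with 10% FBS, U-bottom wells, cultured 1 day before compound (0.2% DMSO final), then 3 days at 37 °C, 5% CO2. Viability by CellTiter-Glo 3D luminescence; growth inhibition versus untreated wells gives IC50 (nM).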
In general terms: In ATP-based viability assays light output follows the ATP content of the culture.

Where [2] appears, read: GMPPNP-bound KRAS G12C incubated with compound 25° C. 1 hour, Table 2-1, read-out: IC50.
The mark [3] stands for this setting: GMPPNP-bound KRAS G12C incubated with compound 25° C. 1 hour, Table 2, read-out: IC50.
Setting [4] is: IC50, GMPPNP-bound KRAS G12C incubated with compound 25° C. 1 hour, Table 2-1.

Consider `CN1CCc2cc(C(=O)c3cc(F)c(NC(=O)/C=C/CNCC(C)(C)CO)c(F)c3)n3cccc(c23)-c2c(C(F)(F)F)cc3c(ncn3C)c21` [Example 113, (E)-N-(4-(9,12-dimethyl-7-(trifluoromethyl)-9,12,13,14-tetrahydro-imidazo[4″,5″:5′,6′]benzo-[1′,2′:2,3]azocino[4,5,6-hi]indolizine-2-carbonyl)-2,6-difluorophenyl)-4-((3-hydroxy-2,2-dimethyl-propyl)amino)but-2-enamide], for which the IC50 in test [1] (setting [2]) amounted to 0.0296 µM; with MIA PaCa-2 cells (Table 3-1), 0.0106 µM.

For `CO[C@H]1CC[C@H](NC/C=C/C(=O)Nc2c(F)cc(C(=O)c3cc4c5c(cccn35)-c3c(C(F)(F)F)cc5c(nc(C)n5C)c3OC(C)C4)cc2F)CC1` (stereo partly shown) [Example 42, (E)-N-(2,6-difluoro-4-(9,10,13-trimethyl-7-(trifluoromethyl)-13,14-dihydro-9H-imidazo[4″,5″:5′,6′]benzo[1′,2′:2,3]oxocino[4,5,6-hi]indolizine-2-carbonyl)phenyl)-4-(((1r,4r)-4-methoxycyclohexyl)amino)but-2-enamide], the figures for the IC50 (in test [1] (setting [3]); in the test on MIA PaCa-2 cells (Table 3)) were 0.018 µM and 0.009 µM, respectively.

With `CC1Cc2cc(C(=O)c3cc(F)c(NC(=O)/C=C/CNC4(C)COC4)c(F)c3)n3cccc(c23)-c2c(C(F)(F)F)cc3c(ncn3C)c2O1` (stereo not shown) [Example 130, (E)-N-(4-(9,13-dimethyl-7-(trifluoromethyl)-13,14-dihydro-9H-imidazo[4″,5″:5′,6′]benzo[1′,2′:2,3]oxocino[4,5,6-hi]indolizine-2-carbonyl)-2,6-difluorophenyl)-4-((3-methyloxetan-3-yl)amino)but-2-enamide], the IC50 in test [1] (setting [2]) was determined as 0.0414 µM; in the test with MIA PaCa-2 cells (Table 3-1), 0.0828 µM.

`COCc1nc2c3c(c(C(F)(F)F)cc2n1C)-c1cccn2c(C(=O)c4cc(F)c(NC(=O)/C=C/CN[C@H]5CCOC5)c(F)c4)cc(c12)COC3` [Example 209, (S,E)-N-(2,6-difluoro-4-(10-(methoxymethyl)-9-methyl-7-(trifluoromethyl)-9,12-dihydro-14H-imidazo[4″,5″:3′,4′]benzo[1′,2′:6,7]oxocino[5,4,3-hi]indolizine-2-carbonyl)phenyl)-4-((tetrahydrofuran-3-yl)amino)but-2-enamide]: the IC50 in test [1] (setting [2]) worked out at 0.0469 µM; with MIA PaCa-2 cells (Table 3-1) it was 0.0187 µM.

In the case of `CO[C@H]1CC[C@H](NC/C=C/C(=O)Nc2c(F)cc(C(=O)c3cn4c5c(cccc35)-c3c(ccc(C#N)c3Cl)OCC4)cc2F)CC1` [Example 9, (E)-N-(4-(10-chloro-9-cyano-4,5-dihydrobenzo[7,8][1:4]oxazocino[6,5,4-hi]indole-1-9 carbonyl)-2,6-difluorophenyl)-4-(((1,4r)-4-methoxycyclohexyl)amino)but-2-enamide], the IC50 in test [1] (IC50, GMPPNP-bound KRAS G12C incubated with compound 25° C. 1 hour, Table 2) came out at 1.5 µM; in the test on MIA PaCa-2 cells (Table 3), 0.76 µM.

Turning to `Cc1nc2c3c(c(C(F)(F)F)cc2n1C)-c1cccc2c(C(=O)c4cc(F)c(NC(=O)/C=C/CN[C@H]5CCOC5)c(F)c4)cn(c12)CCN3C` (single isomer, unassigned) [Example 87], the half-maximal inhibitory concentration (IC50) in test [1] (setting [4]) is 0.0182 µM; in the test with MIA PaCa-2 cells (Table 3-1), 0.00327 µM.

Take `CC1(NC/C=C/C(=O)Nc2c(F)cc(C(=O)c3cc4c5c(cccn35)-c3c(cc(N5CCCC5=O)cc3C(F)(F)F)OCC4)cc2F)COC1` (single isomer, unassigned) [Example 183, (E)-N-(2,6-difluoro-4-(7-(2-oxopyrrolidin-1-yl)-9-(trifluoromethyl)-3,4-dihydrobenzo[2,3]oxocino-[4,5,6-hi]indolizine-1-carbonyl)phenyl)-4-((3-methyloxetan-3-yl)-amino)-but-2-enamide]: the values for the IC50 (in test [1] (setting [2]); with MIA PaCa-2 cells (Table 3-1)) were 0.0352 µM and 0.112 µM, respectively.

As to `Cn1cnc2c3c(c(C(F)(F)F)cc21)-c1cccn2c(C(=O)c4cc(F)c(NC(=O)/C=C/CN5CC6CC5CCO6)c(F)c4)cc(c12)CCO3` (stereo not shown) [Example 229, (E)-4-(2-oxa-6-azabicyclo-[3.2.1]octan-6-yl)-N-(2,6-difluoro-4-(9-methyl-7-(trifluoromethyl)-13,14-dihydro-9H-imidazo-[4″,5″:5′,6′]benzo[1′,2′: 2,3]oxocino[4,5,6-hi]-indolizine-2-carbonyl)-phenyl)but-2-enamide], the IC50 was 0.0127 µM in test [1] (setting [2]) and 0.0113 µM in the test with MIA PaCa-2 cells (Table 3-1).

On to `Cc1c2cc(C(F)(F)F)c3c(c2nn1C)N(C)CCc1nc(C(=O)c2cc(F)c(NC(=O)/C=C/CN[C@H]4CCOC4)c(F)c2)n2cccc-3c12` (single isomer, unassigned) [Example 176], for which the IC50 in test [1] (setting [2]) came out at 0.0674 µM; in the test with MIA PaCa-2 cells (Table 3-1) it was 0.0251 µM.

With `Cc1nc2c3c(c(C(F)(F)F)cc2n1C)-c1cccn2c(C(=O)c4cc(F)c(NC(=O)/C=C/CNC(C)(C)C)c(F)c4)cc(c12)CCO3` [Example 33], the IC50 in test [1] (setting [3]) was 0.014 µM; in the test with MIA PaCa-2 cells (Table 3), 0.005 µM.

In the case of `COc1cc2c(nc(C)n2C)c2c1-c1cccn3c(C(=O)c4cc(F)c(NC(=O)/C=C/CNC5(C)CC5)c(F)c4)cc(c13)CCN2C` (single isomer, unassigned) [Example 140, (E)-N-(2,6-difluoro-4-(7-methoxy-9,10,12-trimethyl-9,12,13,14-tetrahydroimidazo[4″,5″:5′,6′]benzo[1′,2′:2,3]azocino[4,5,6-hi]indolizine-2-carbonyl)phenyl)-4-((1-methylcyclopropyl)amino)but-2-enamide], the values for the IC50 (in test [1] (setting [2]); in the test with MIA PaCa-2 cells (Table 3-1)) were 0.00413 µM and 0.00759 µM, respectively.

`Cn1cnc2c3c(c(C(F)(F)F)cc21)-c1cccn2c(C(=O)c4cc(F)c(NC(=O)/C=C/CN5C6COCC5C6)c(F)c4)cc(c12)CCO3` [Example 212, (E)-4-(3-oxa-6-azabicyclo-[3.1.1]heptan-6-yl)-N-(2,6-difluoro-4-(9-meth-yl-7-(trifluoromethyl)-13,14-dihydro-9H-imidazo-[4″,5″:5′,6′]benzo[1′,2′: 2,3]oxocino[4,5,6-hi]-indolizine-2-carbonyl)-phenyl)but-2-enamide]: the IC50 amounted to 0.0163 µM in test [1] (setting [2]) and 0.00416 µM in the test on MIA PaCa-2 cells (Table 3-1).

As for `Cc1cc2c(nc(C)n2C)c2c1-c1cccc3c(C(=O)c4cc(F)c(NC(=O)/C=C/CN[C@H]5[C@@H]6COC[C@@H]65)c(F)c4)cn(c13)CCN2C` [Example 143, (E)-4-(((1R,5S,6r)-3-oxa-bicyclo[3.1.0]hexan-6-yl)amino)-N-(2,6-difluoro-4-(6,8,9,11-tetramethyl-8,11,12,13-tetrahydro-imidazo[4″,5″:5′,6′]benzo-[1′,2′:5,6][1,4]diazocino-[7,8,1-hi]indole-2-carbon-yl)phenyl)but-2-enamide], the IC50 in test [1] (setting [4]) stood at 0.0178 µM; in the test on MIA PaCa-2 cells (Table 3-1), 0.0477 µM.

For the molecule `COCc1nc2c3c(c(C(F)(F)F)cc2n1C)-c1cccc2c(C(=O)c4cc(F)c(NC(=O)/C=C/CNC5(C)COC5)c(F)c4)cn(c12)CCN3C` (single isomer, unassigned) [Example 97, (E)-N-(2,6-difluoro-4-(9-(methoxymethyl)-8,11-dimethyl-6-(trifluorometh-yl)-8,11,12,13-tetrahydro-imidazo[4″,5″:5′,6′]benzo-[1′,2′:5,6][1,4]diazocino-[7,8,1-hi]indole-2-carbon-yl)phenyl)-4-((3-methyl-oxetan-3-yl)amino)but-2-enamide], the figures for the IC50 (in test [1] (setting [4]); with MIA PaCa-2 cells (Table 3-1)) were 0.0304 µM and 0.00791 µM, respectively.
